Calls of active or inactive are those of the source. How the calls were made is not given here.
Each compound was assayed against Metabotropic glutamate receptor 5 (Rattus norvegicus) (UniProt P31424) (assay: PubChem AID 651852). Conditions: HEK293 rat mGluR5 membranes, radioligand competition binding.
Sequence of Metabotropic glutamate receptor 5 (Rattus norvegicus) (P31424 whole entry, looked up): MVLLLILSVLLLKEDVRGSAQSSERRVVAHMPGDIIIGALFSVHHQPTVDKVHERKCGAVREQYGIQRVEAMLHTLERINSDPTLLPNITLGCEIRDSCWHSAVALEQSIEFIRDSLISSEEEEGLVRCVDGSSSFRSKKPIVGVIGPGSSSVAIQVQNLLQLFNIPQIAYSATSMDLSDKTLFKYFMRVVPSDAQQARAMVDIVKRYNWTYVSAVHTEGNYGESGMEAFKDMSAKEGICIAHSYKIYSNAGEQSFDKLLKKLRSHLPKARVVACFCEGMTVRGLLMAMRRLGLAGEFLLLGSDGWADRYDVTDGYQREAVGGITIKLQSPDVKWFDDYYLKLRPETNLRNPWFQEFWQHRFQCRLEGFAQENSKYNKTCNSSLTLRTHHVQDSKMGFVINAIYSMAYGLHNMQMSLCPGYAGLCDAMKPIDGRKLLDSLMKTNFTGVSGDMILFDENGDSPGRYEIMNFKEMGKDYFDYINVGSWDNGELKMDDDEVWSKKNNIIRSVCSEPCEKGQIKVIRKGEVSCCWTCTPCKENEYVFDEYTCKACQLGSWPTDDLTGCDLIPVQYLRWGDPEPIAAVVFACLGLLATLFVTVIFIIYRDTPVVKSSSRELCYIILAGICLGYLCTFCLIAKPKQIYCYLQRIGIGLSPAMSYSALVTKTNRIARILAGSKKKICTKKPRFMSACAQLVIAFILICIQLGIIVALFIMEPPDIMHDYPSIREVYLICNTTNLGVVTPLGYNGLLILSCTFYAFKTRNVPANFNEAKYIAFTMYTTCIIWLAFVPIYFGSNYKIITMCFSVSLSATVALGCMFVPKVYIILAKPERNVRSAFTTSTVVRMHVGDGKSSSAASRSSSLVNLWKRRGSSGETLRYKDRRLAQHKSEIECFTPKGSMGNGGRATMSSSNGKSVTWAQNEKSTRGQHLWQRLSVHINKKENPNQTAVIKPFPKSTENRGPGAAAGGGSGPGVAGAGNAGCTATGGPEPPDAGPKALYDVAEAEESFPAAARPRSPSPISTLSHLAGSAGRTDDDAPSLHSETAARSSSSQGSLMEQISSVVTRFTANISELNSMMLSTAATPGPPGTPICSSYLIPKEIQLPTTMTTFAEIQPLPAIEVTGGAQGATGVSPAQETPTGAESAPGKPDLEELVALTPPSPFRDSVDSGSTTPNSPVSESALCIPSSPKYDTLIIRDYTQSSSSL

Row | IC50 | Compound
1 | > 30 µM (inactive) | O=S(=O)(c1ccc(C#Cc2cccc(F)c2)cc1)N1CCOCC1
2 | > 30 µM (inactive) | O=S(=O)(c1ccc(F)cc1)N1CCCC(c2nc(-c3ccc(F)cc3)no2)C1 (stereo not drawn)
3 | > 30 µM (inactive) | CS(=O)(=O)N(CC(=O)NCC1CC1)c1cc(C(F)(F)F)ccc1Cl
